Experimental data reported in patent US20240158446A1, “CYCLIC COMPOUND HAVING SELECTIVE INHIBITORY ACTION ON KRAS OVER HRAS AND NRAS” (CHUGAI SEIYAKU KABUSHIKI KAISHA, priority 2021, published 2024).
*1 amine or outer side, *2 acyl side, *3 side chain or, on linkers, in order; H or OH if unused. Where a SMILES comes first, the peptide text is derived from it. Bridges are numbered along the chain shown (N, C = ends). [ ]: non-standard residue; d: D form. The star is where a group is joined. X47 = CC(C)(C)CCN([C@@H](Cc1ccc(C(F)(F)F)cc1)C(=O)[*:2])[*:1]; hPhe(3-Cl-4-CF3) = N[C@@H](CCc1ccc(C(F)(F)F)c(Cl)c1)C(=O)O; X34 = Cc1ccc(C[C@@H](C(=O)[*:2])N(CCC(C)(C)C)[*:1])cc1; NPrPhe(4-CF3) = CCCN[C@@H](Cc1ccc(C(F)(F)F)cc1)C(=O)O; NEtPhe(4-CF3) = CCN[C@@H](Cc1ccc(C(F)(F)F)cc1)C(=O)O; X33 = C[C@@H]1CN([*:1])[C@@H]1C(=O)[*:2]; NMeGly(cPent) = CN[C@H](C(=O)O)C1CCCC1; NMeF = CN[C@@H](Cc1ccccc1)C(=O)O; NMeD = CN[C@@H](CC(=O)O)C(=O)O; NMeL = CN[C@@H](CC(C)C)C(=O)O; Pip = O=C(O)[C@@H]1CCCCN1; Morpholide = C1CN(*)CCO1; NMeA = CN[C@@H](C)C(=O)O; Ac5c = NC1(C(=O)O)CCCC1; Aze = O=C(O)[C@@H]1CCN1; Ac3c = NC1(C(=O)O)CC1; Aib = CC(C)(N)C(=O)O; Sar = CNCC(=O)O

Legend:
[1] = target: GDP-bound NRAS wild-type protein (Homo sapiens, UniProt P01111); test: Binding to NRAS by surface plasmon resonance (SPR), Single Cycle Kinetics; conditions: SPR, GDP-bound NRAS wild-type protein vs GDP-bound KRAS wild-type protein
[2] = target: GDP-bound HRAS wild-type protein (Homo sapiens, UniProt P01112); test: Binding to HRAS by surface plasmon resonance (SPR), Single Cycle Kinetics; conditions: SPR, GDP-bound HRAS wild-type protein vs GDP-bound KRAS wild-type protein
[3] = tested on: human lung cancer strain NCI-H441;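 note: cell proliferation inhibition after four days measured by CellTiter-Glo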

Chain of GDP-bound NRAS wild-type protein (P01111 whole entry): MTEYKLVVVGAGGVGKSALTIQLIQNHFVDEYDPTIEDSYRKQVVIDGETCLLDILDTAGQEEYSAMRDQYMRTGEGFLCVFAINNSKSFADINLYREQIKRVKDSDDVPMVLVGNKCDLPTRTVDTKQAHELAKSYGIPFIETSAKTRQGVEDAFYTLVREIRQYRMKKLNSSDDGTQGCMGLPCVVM
Chain of GDP-bound HRAS wild-type protein (P01112 whole entry): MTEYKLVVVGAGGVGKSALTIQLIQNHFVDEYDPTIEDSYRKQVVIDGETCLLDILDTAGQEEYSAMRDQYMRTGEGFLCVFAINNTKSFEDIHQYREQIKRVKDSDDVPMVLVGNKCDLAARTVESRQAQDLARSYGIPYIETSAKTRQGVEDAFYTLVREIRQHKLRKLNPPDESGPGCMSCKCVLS

CCCN1C(=O)[C@@H]2CCN2C(=O)[C@@H]2CCCCN2C(=O)[C@H]([C@@H](C)CC)NC(=O)[C@H](CC(C)C)N(C)C(=O)C[C@@H](C(=O)N2CCOCC2)N(C)C(=O)[C@H](C2CCCC2)N(C)C(=O)C2(CCCC2)NC(=O)[C@@H]2CCCN2C(=O)[C@H](CCc2ccc(C(F)(F)F)c(Cl)c2)NC(=O)CN(C)C(=O)[C@@H]1Cc1ccc(C(F)(F)F)cc1 [PP0077] ([NMeL]I[Pip][Aze][NPrPhe(4-CF3)][Sar][hPhe(3-Cl-4-CF3)]P[Ac5c][NMeGly(cPent)][NMeD]-Morpholide; lactam N-11)
NRAS/KRAS (ratio of KD value for NRAS to KD value for KRAS) [1]: C (A compound having a KD ratio of 0.1 or more and less than 3 is denoted as C)
HRAS/KRAS (ratio of KD value for HRAS to KD value for KRAS) [2]: B (a compound having 3 or more and less than 10 is denoted as B)
IC50 [3]: 5.3 nM

CC[C@H](C)[C@@H]1NC(=O)[C@H](CC(C)C)N(C)C(=O)C[C@@H](C(=O)N2CCOCC2)N(C)C(=O)[C@H](C2CCCC2)N(C)C(=O)C2(CCCC2)NC(=O)[C@@H]2CCCN2C(=O)[C@H](CCc2ccc(C(F)(F)F)c(Cl)c2)NC(=O)CN(C)C(=O)[C@H](Cc2ccc(C)cc2)N(CCC(C)(C)C)C(=O)[C@@H]2CCN2C(=O)[C@H](C)N(C)C1=O [PP0087] ([NMeL]I[NMeA][Aze][X34][Sar][hPhe(3-Cl-4-CF3)]P[Ac5c][NMeGly(cPent)][NMeD]-Morpholide; lactam N-11)
NRAS/KRAS (ratio of KD value for NRAS to KD value for KRAS) [1]: C (A compound having a KD ratio of 0.1 or more and less than 3 is denoted as C)
HRAS/KRAS (ratio of KD value for HRAS to KD value for KRAS) [2]: C (A compound having a KD ratio of 0.1 or more and less than 3 is denoted as C)
IC50 [3]: 24 nM

CC[C@H](C)[C@@H]1NC(=O)[C@H](CC(C)C)N(C)C(=O)C[C@@H](C(=O)N2CCOCC2)N(C)C(=O)[C@H](C2CCCC2)N(C)C(=O)C2(CCCC2)NC(=O)[C@@H]2CCCN2C(=O)[C@H](CCc2ccc(C(F)(F)F)c(Cl)c2)NC(=O)CN(C)C(=O)[C@H](Cc2ccc(C(F)(F)F)cc2)N(CCC(C)(C)C)C(=O)[C@@H]2CCN2C(=O)[C@H](C)N(C)C1=O [PP0113] ([NMeL]I[NMeA][Aze][X47][Sar][hPhe(3-Cl-4-CF3)]P[Ac5c][NMeGly(cPent)][NMeD]-Morpholide; lactam N-11)
NRAS/KRAS (ratio of KD value for NRAS to KD value for KRAS) [1]: C (A compound having a KD ratio of 0.1 or more and less than 3 is denoted as C)
HRAS/KRAS (ratio of KD value for HRAS to KD value for KRAS) [2]: B (a compound having 3 or more and less than 10 is denoted as B)
IC50 [3]: 7.1 nM

CCCN1C(=O)CN(C)C(=O)[C@@H]2CCN2C(=O)[C@H]([C@@H](C)CC)NC(=O)[C@H](CC(C)C)N(C)C(=O)C[C@@H](C(=O)N2CCOCC2)N(C)C(=O)[C@H](C2CCCC2)N(C)C(=O)C2(CCCC2)NC(=O)[C@@H]2CCCN2C(=O)[C@H](CCc2ccc(C(F)(F)F)c(Cl)c2)NC(=O)CN(C)C(=O)[C@@H]1Cc1ccc(C(F)(F)F)cc1 [PP0158] ([NMeL]I[Aze][Sar][NPrPhe(4-CF3)][Sar][hPhe(3-Cl-4-CF3)]P[Ac5c][NMeGly(cPent)][NMeD]-Morpholide; lactam N-11)
NRAS/KRAS (ratio of KD value for NRAS to KD value for KRAS) [1]: A (a compound having 10 or more and less than 20 is denoted as A)
HRAS/KRAS (ratio of KD value for HRAS to KD value for KRAS) [2]: B (a compound having 3 or more and less than 10 is denoted as B)
IC50 [3]: 15.4 nM

CCCN1C(=O)[C@@H]2CCN2C(=O)[C@@H]2CCN2C(=O)[C@H]([C@@H](C)CC)NC(=O)[C@H](CC(C)C)N(C)C(=O)C[C@@H](C(=O)N2CCOCC2)N(C)C(=O)[C@H](C2CCCC2)N(C)C(=O)C2(CCCC2)NC(=O)[C@@H]2CCCN2C(=O)[C@H](CCc2ccc(C(F)(F)F)c(Cl)c2)NC(=O)CN(C)C(=O)[C@@H]1Cc1ccc(C(F)(F)F)cc1 [PP0168] ([NMeL]I[Aze][Aze][NPrPhe(4-CF3)][Sar][hPhe(3-Cl-4-CF3)]P[Ac5c][NMeGly(cPent)][NMeD]-Morpholide; lactam N-11)
NRAS/KRAS (ratio of KD value for NRAS to KD value for KRAS) [1]: C (A compound having a KD ratio of 0.1 or more and less than 3 is denoted as C)
HRAS/KRAS (ratio of KD value for HRAS to KD value for KRAS) [2]: B (a compound having 3 or more and less than 10 is denoted as B)
IC50 [3]: 26.6 nM

CCCN1C(=O)[C@@H]2CCN2C(=O)[C@H](Cc2ccccc2)N(C)C(=O)[C@H]([C@@H](C)CC)NC(=O)[C@H](CC(C)C)N(C)C(=O)C[C@@H](C(=O)N2CCOCC2)N(C)C(=O)[C@H](C2CCCC2)N(C)C(=O)C2(CCCC2)NC(=O)[C@@H]2CCCN2C(=O)[C@H](CCc2ccc(C(F)(F)F)c(Cl)c2)NC(=O)CN(C)C(=O)[C@@H]1Cc1ccc(C(F)(F)F)cc1 [PP0209] ([NMeL]I[NMeF][Aze][NPrPhe(4-CF3)][Sar][hPhe(3-Cl-4-CF3)]P[Ac5c][NMeGly(cPent)][NMeD]-Morpholide; lactam N-11)
NRAS/KRAS (ratio of KD value for NRAS to KD value for KRAS) [1]: C (A compound having a KD ratio of 0.1 or more and less than 3 is denoted as C)
HRAS/KRAS (ratio of KD value for HRAS to KD value for KRAS) [2]: C (A compound having a KD ratio of 0.1 or more and less than 3 is denoted as C)
IC50 [3]: 569 nM

CC[C@H](C)[C@@H]1NC(=O)[C@H](CC(C)C)N(C)C(=O)C[C@@H](C(=O)N2CCOCC2)N(C)C(=O)[C@H](C2CCCC2)N(C)C(=O)C2(CC2)NC(=O)[C@@H]2CCCN2C(=O)[C@H](CCc2ccc(C(F)(F)F)c(Cl)c2)NC(=O)CN(C)C(=O)[C@H](Cc2ccc(C(F)(F)F)cc2)N(CC)C(=O)CN(C)C(=O)CN(C)C1=O [PP0234] ([NMeL]I[Sar][Sar][NEtPhe(4-CF3)][Sar][hPhe(3-Cl-4-CF3)]P[Ac3c][NMeGly(cPent)][NMeD]-Morpholide; lactam N-11)
NRAS/KRAS (ratio of KD value for NRAS to KD value for KRAS) [1]: B (a compound having 3 or more and less than 10 is denoted as B)
HRAS/KRAS (ratio of KD value for HRAS to KD value for KRAS) [2]: C (A compound having a KD ratio of 0.1 or more and less than 3 is denoted as C)
IC50 [3]: 49.9 nM

CC[C@H](C)[C@@H]1NC(=O)[C@H](CC(C)C)N(C)C(=O)C[C@@H](C(=O)N2CCOCC2)N(C)C(=O)[C@H](C2CCCC2)N(C)C(=O)C(C)(C)NC(=O)[C@@H]2CCCN2C(=O)[C@H](CCc2ccc(C(F)(F)F)c(Cl)c2)NC(=O)CN(C)C(=O)[C@H](Cc2ccc(C(F)(F)F)cc2)N(CC)C(=O)CN(C)C(=O)CN(C)C1=O [PP0235] ([NMeL]I[Sar][Sar][NEtPhe(4-CF3)][Sar][hPhe(3-Cl-4-CF3)]P[Aib][NMeGly(cPent)][NMeD]-Morpholide; lactam N-11)
NRAS/KRAS (ratio of KD value for NRAS to KD value for KRAS) [1]: B (a compound having 3 or more and less than 10 is denoted as B)
HRAS/KRAS (ratio of KD value for HRAS to KD value for KRAS) [2]: C (A compound having a KD ratio of 0.1 or more and less than 3 is denoted as C)
IC50 [3]: 4.5 nM

CCCN1C(=O)CN(C)C(=O)[C@@H]2[C@H](C)CN2C(=O)[C@H]([C@@H](C)CC)NC(=O)[C@H](CC(C)C)N(C)C(=O)C[C@@H](C(=O)N2CCOCC2)N(C)C(=O)[C@H](C2CCCC2)N(C)C(=O)C2(CCCC2)NC(=O)[C@@H]2CCCN2C(=O)[C@H](CCc2ccc(C(F)(F)F)c(Cl)c2)NC(=O)CN(C)C(=O)[C@@H]1Cc1ccc(C(F)(F)F)cc1 [PP0257] ([NMeL]I[X33][Sar][NPrPhe(4-CF3)][Sar][hPhe(3-Cl-4-CF3)]P[Ac5c][NMeGly(cPent)][NMeD]-Morpholide; lactam N-11)
NRAS/KRAS (ratio of KD value for NRAS to KD value for KRAS) [1]: B (a compound having 3 or more and less than 10 is denoted as B)
HRAS/KRAS (ratio of KD value for HRAS to KD value for KRAS) [2]: B (a compound having 3 or more and less than 10 is denoted as B)
IC50 [3]: 30.8 nM
